Assay results from patent US20230027361A1, “METTL3 MODULATORS” (priority 2019, published 2023).
Like-named read-outs stand apart in the source and are kept apart here.

Tests used:
MOLM-13 cells [1] = assay: MOLM-13 96 Hour Cell Proliferation Assay; format: cell-based; settings: Homo sapiens
In short: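 MOLM-13 cells in RPMI 1640 with 10% FBS were plated overnight at 37 °C, then exposed to compound dilutions at 0.25% DMSO final for 96 h. Viability was read by CellTiter-Glo luminescence, normalised to staurosporine (100% death) and DMSO (0% death) controls, and IC50 was fitted by 4-parameter logistic regression.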

PRMT5-MEP50 = PRMT5-MEP50 (Homo sapiens, UniProt O14744); assay: PRMT5 Assay (PRMT5 biochemical assay)
In short: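 Radiometric methyltransferase read-out: after 60 min reaction, excess unlabelled SAM (15 μM) stops turnover and biotinylated H4 peptide (100 nM) carrying 3H-methyl from 250 nM 3H-SAM is captured on streptavidin flashplates (2 h, 25° C) for scintillation counting. Enzyme, 2.5 nM PRMT5-MEP50, was preincubated 5 min with compound in pH 8.0 Tris buffer with DTT and Tween.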

MOLM-13 cells [2] = assay: MOLM-13 48 Hour Cell Proliferation Assay; format: cell-based; settings: Homo sapiens
Description: MOLM-13 (DSMZ) cells were seeded at 1000 cells per well in a volume of 44 μL in a Falcon 384-well tissue culture treated clear bottom microplate in RPMI 1640 media containing 10% fetal bovine serum using a Multidrop Combi (ThermoFisher Scientific). Cells were incubated overnight at 37° C. in a humidified tissue culture incubator. The Mosquito® HTS Liquid Handler was used to make a compound/media intermediate plate by aliquoting 1 μL of compound from the initial compound dilution plate (concentrations ranging from 10.0 mM to 38.0 nM in 100% DMSO) into a V bottom 384-well screen matrix plate containing 49 μL of media containing the appropriate serum (50-fold dilution, 2% DMSO). The Apricot liquid handling system was used to transfer 6.2 μL compounds from the intermediate plate into the Falcon 384-well tissue culture plate containing 44 μL cells (10-point, 4-fold dilution spanning concentrations 25.0 μM to […], 0.25% DMSO final), and placed in a humidified tissue culture incubator at 37° C. After 48 hours, 25 μL of Cell Titer-Glo reagent (Promega) was added to each well using a Multidrop Combi. The plate was protected from light and placed on an IKA plate shaker for at 300 rpm for 10 minutes at room temperature. The plate was read on an EnVision plate reader (Perkin Elmer) using the Ultra Sensitive Luminescence protocol. Data analysis was performed by normalizing the raw luminescence units to an average of the positive control values for staurosporine (100% cell death) and the negative control values for DMSO (0% cell death). An IC50 was calculated using a 4-parameter logistic nonlinear regression model in GraphPad Prism.

[3] = tested on: m6A in cellular mRNA of MOLM-13 cells; assay: m6A-mRNA LC-MS/MS Assay (m6A cellular assay); format: cell-based; settings: Homo sapiens, MOLM-13, read-out: m^6A IC50
Description: Cells were harvested by centrifugation followed by mRNA extraction using DIRECT Dynabeads mRNA DIRECT kit (Life Technologies). mRNA was quantified on NanoDrop spectrophotometer (Thermo Fisher Scientific) and digested into single nucleosides using Nucleoside Digestion Mix (New England Biolabs). […] Quantification is performed in comparison with the standard curve, obtained from pure nucleoside standards (Selleck Chemicals) running with the same batch of samples. Percentage m^6A in cellular mRNA is calculated as 100*(m^6A/A).

METTL3/METTL14 = METTL3/METTL14 (Homo sapiens, UniProt Q86U44); assay: METTL3-14 Standard Enzyme Assay (METTL3 biochemical assay)
In short: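 Tritium transfer from ³H-SAM (100 nM) to biotinylated RNA (100 nM) captured on streptavidin flashplates and counted by scintillation. Enzyme complex (2.5 nM) with compound, 5 min preincubation, 30 min reaction at ambient temperature, HEPES pH 7.5 buffer, stopped by excess unlabeled SAM.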

METTL1/WDR4 = METTL1/WDR4 (Homo sapiens, UniProt Q9UBP6); assay: METTL1 Assay (METTL1 biochemical assay); settings: METTL1 biochemical assay; read-out: METTL1 IC50
In short: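 Radiometric methyltransfer by METTL1/WDR4 (6.25 nM f.c., 5 min preincubation) at ambient temperature in HEPES pH 7.5, KCl, MgCl2, DTT; started with 25 nM 3′-biotinylated RNA and 60 nM 3H-SAM, run 20 min, quenched with 15 μM cold SAM. Product captured on streptavidin flashplates (2 h, 25° C), counted by scintillation.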

[4] = PRMT5 biochemical assay, read-out: PRMT5 IC50
[5] = METTL3 biochemical assay, read-out: METTL3 IC50

METTL3/METTL14, sequence (Q86U44 whole entry, species assumed): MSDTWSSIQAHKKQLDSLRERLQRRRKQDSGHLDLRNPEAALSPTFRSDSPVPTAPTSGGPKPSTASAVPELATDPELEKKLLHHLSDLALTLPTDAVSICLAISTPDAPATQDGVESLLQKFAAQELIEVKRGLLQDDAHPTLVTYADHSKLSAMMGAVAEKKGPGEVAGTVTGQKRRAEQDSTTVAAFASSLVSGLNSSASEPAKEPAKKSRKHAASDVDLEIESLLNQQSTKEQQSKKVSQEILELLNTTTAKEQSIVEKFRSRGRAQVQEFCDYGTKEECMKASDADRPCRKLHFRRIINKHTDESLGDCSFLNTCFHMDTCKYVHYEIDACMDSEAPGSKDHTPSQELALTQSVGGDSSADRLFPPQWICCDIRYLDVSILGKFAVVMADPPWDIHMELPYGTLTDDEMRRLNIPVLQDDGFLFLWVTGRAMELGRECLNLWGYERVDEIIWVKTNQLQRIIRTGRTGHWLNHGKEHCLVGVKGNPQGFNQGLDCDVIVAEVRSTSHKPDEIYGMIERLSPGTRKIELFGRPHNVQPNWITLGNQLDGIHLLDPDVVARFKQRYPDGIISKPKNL
METTL3/METTL14, sequence (Q9HCE5 whole entry partner, species assumed): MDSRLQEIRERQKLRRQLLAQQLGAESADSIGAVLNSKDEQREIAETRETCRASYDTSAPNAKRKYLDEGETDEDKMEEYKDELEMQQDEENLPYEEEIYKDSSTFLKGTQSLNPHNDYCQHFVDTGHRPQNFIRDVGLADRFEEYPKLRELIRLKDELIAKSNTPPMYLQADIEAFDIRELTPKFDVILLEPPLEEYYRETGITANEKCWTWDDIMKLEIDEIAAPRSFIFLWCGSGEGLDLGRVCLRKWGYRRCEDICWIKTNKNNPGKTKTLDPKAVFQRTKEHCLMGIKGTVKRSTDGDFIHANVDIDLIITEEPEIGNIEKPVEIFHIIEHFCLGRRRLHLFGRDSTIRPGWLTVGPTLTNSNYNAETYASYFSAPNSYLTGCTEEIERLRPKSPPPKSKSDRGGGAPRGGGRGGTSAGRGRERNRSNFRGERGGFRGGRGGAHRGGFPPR
PRMT5-MEP50, sequence (O14744 whole entry): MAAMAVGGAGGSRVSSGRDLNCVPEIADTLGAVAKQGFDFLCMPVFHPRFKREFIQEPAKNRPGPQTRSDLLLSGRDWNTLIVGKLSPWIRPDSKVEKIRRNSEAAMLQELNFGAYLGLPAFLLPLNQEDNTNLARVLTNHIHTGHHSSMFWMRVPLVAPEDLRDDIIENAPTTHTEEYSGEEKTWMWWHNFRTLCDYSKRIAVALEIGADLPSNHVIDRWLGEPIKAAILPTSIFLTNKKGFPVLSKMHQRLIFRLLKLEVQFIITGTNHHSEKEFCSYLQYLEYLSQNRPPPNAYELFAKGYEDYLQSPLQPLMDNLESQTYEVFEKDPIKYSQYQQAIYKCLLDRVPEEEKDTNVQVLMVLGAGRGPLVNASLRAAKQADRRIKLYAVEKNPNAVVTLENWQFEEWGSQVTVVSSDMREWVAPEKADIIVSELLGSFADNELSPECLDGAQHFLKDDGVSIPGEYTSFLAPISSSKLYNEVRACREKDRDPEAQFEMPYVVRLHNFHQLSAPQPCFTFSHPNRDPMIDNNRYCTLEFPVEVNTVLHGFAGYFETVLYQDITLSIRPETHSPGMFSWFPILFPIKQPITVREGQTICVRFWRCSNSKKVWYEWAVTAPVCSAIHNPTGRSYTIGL
PRMT5-MEP50, sequence (Q9BQA1 whole entry partner): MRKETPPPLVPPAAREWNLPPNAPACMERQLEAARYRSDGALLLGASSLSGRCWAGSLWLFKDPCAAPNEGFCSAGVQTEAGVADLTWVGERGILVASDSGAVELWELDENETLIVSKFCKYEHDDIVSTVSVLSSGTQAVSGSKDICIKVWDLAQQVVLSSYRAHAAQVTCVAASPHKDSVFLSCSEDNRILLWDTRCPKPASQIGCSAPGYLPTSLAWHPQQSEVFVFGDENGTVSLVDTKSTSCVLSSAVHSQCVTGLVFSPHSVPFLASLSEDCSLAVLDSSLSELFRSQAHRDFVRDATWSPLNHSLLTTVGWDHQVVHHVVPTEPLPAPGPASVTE
METTL1/WDR4, sequence (Q9UBP6 whole entry, species assumed): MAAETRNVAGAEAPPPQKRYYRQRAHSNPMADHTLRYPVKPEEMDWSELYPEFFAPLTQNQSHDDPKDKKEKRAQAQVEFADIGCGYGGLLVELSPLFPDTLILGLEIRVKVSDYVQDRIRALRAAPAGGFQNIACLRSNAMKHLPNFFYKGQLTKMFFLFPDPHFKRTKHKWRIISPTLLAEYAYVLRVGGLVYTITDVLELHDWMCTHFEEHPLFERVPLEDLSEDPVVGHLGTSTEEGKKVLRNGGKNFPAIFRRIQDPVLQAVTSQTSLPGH
METTL1/WDR4, sequence (P57081 whole entry partner, species assumed): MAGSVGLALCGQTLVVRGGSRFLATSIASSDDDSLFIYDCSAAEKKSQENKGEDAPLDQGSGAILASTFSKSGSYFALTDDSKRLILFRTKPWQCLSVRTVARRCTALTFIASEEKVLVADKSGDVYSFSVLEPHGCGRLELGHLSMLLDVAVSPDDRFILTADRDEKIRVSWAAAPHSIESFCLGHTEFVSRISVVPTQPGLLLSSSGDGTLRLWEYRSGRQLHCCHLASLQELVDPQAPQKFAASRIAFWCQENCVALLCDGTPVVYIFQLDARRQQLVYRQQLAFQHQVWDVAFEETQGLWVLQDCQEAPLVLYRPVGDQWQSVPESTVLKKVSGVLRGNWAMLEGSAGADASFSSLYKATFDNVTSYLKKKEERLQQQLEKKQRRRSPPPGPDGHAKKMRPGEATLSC

SMILES | IC50 (MOLM-13 cells [1]) [µM] | IC50 (PRMT5-MEP50; read-out: PRMT5 IC50, PRMT5 biochemical assay) [µM] | IC50 (MOLM-13 cells [2]) [µM] | IC50 [3] [µM] | IC50 (METTL3/METTL14; read-out: METTL3 IC50, METTL3 biochemical assay) [µM] | IC50 (MOLM-13 cells [1]; MOLM-13, 96 h) [µM] | IC50 (PRMT5-MEP50; [4]) [µM] | IC50 (METTL3/METTL14; [5]) [µM] | IC50 (PRMT5-MEP50) [µM] | IC50 (METTL3/METTL14) [µM] | IC50 (METTL1/WDR4) [µM]
CNc1ccc2ccc(OC[C@H]3O[C@@H](n4cc(-c5ncco5)c5c(N)ncnc54)[C@@H](F)[C@@H]3O)cc2n1 [I-150] | < 1 | 0.01 to 0.1 | < 1 | < 1 | < 0.01 |  |  |  |  |  | 
CNc1ccc2ccc(OC[C@H]3O[C@@H](n4cc([C@H]5CCCO5)c5c(N)ncnc54)[C@@H](F)[C@@H]3O)cc2n1 [I-151] |  |  | 1 to 10 | 1 to 10 |  | < 1 | 0.1 to 1 | < 0.01 |  |  | 
CNc1ccc2ccc(OC[C@H]3O[C@@H](n4cc([C@@H]5CCCO5)c5c(N)ncnc54)[C@@H](F)[C@@H]3O)cc2n1 [I-152] |  |  | 1 to 10 | < 1 |  | < 1 | > 1 | < 0.01 |  |  | 
Nc1ncnc2c1c([C@@H]1CCCO1)cn2[C@@H]1O[C@H](COc2ccc3ccc(N4CCC4)nc3c2)[C@@H](O)[C@@H]1F [I-158] |  |  | 1 to 10 | < 1 |  | < 1 |  | < 0.01 |  |  | 
Cn1ccc(-c2cn([C@H]3C[C@H](O)[C@@H](COc4ccc5ccc(N6CCC6)nc5c4)O3)c3ncnc(N)c23)n1 [I-164] | < 1 |  | 1 to 10 | < 1 |  |  |  |  | > 1 | < 0.01 | 
Nc1ncnc2c1c(-n1cccn1)cn2[C@H]1C[C@H](O)[C@@H](COc2ccc3ccc(N4CCC4)nc3c2)O1 [I-170] | 1 to 10 |  | 1 to 10 | < 1 |  |  |  |  | > 1 | < 0.01 | 
Cn1ccc(-c2cn([C@@H]3O[C@H](COc4ccc5ccc(N6CC(O)C6)nc5c4)[C@@H](O)[C@@H]3F)c3ncnc(N)c23)n1 [I-171] | 1 to 10 |  | 1 to 10 | 1 to 10 |  |  |  |  | > 1 | < 0.01 | 
Cn1ccc(-c2cn([C@H]3C[C@H](O)[C@@H](COc4ccc5ccc(NC6CC6)nc5c4)O3)c3ncnc(N)c23)n1 [I-179] | < 1 |  | 1 to 10 | 1 to 10 |  |  |  |  | 0.1 to 1 | < 0.01 | 
Cn1ccc(-c2cn([C@@H]3O[C@H](COc4ccc5ccc(NC6CCC6)nc5c4)[C@@H](O)[C@@H]3F)c3ncnc(N)c23)n1 [I-183] | < 1 |  | < 1 | < 1 |  |  |  |  | > 1 | < 0.01 | 
Cc1coc(-c2cn([C@@H]3O[C@H](COc4ccc5ccc(N6CCC6)nc5c4)[C@@H](O)[C@@H]3F)c3ncnc(N)c23)n1 [I-220] | < 1 |  | 1 to 10 | < 1 |  |  |  |  | > 1 | < 0.01 | 
Nc1ncnc2c1c(-n1cccn1)cn2[C@@H]1O[C@H](COc2ccc3ccc(N4CCC4)nc3c2)[C@@H](O)[C@@H]1F [I-222] | < 1 |  | < 1 | < 1 |  |  |  |  | > 1 | < 0.01 | 
CNc1ccc2ccc(OC[C@H]3O[C@@H](n4cc(-c5cc[nH]n5)c5c(N)ncnc54)[C@@H](F)[C@@H]3O)cc2n1 [I-228] |  |  | < 1 | 1 to 10 |  | < 1 |  |  | 0.1 to 1 | < 0.01 | > 1
CCc1cc(NC)c2ccc(OC[C@H]3O[C@@H](n4cc(-c5ccn(C)n5)c5c(N)ncnc54)[C@@H](F)[C@@H]3O)cc2n1 [I-232] |  |  | > 10 | > 10 |  |  |  |  | 0.1 to 1 | < 0.01 | > 1
